In ChEMBL document CHEMBL5725720, “Pyrazolopyridines and pyrazolopyrimidines” (2016) one finds IC50 data, which are given here for 13 compounds.

Experiment [1] concerns the target Tyrosine-protein kinase JAK1 (Homo sapiens, UniProt P23458). As to the kind of experiment: (§1) JAK Caliper Enzyme Assay at 1 mM ATP: Test article was solubilized in dimethyl sulfoxide (DMSO) to a stock concentration of 30 mM. An 11-point half log dilution series was created in DMSO with a top concentration of 600 μM. […] The compound plates were diluted 1 to 60 resulting in a top final assay compound concentration of 10 μM and a 2% DMSO concentration.Test article and assay controls were added to a 384-well plate. Reaction mixtures contained 20 mM HEPES, pH 7.4, 10 mM magnesium chloride, 0.01% bovine serum albumin (BSA), 0.0005% Tween 20, 1 mM ATP and 1 μM peptide substrate. The JAK1 and TYK2 assays contained 1 μM of the IRStide peptide (5FAM-[…]) and the JAK2 and JAK3 assays contained 1 μM of the JAKtide peptide (FITC-[…]). […] Enzyme concentrations and incubation times were optimized for each new enzyme preps and were modified slightly over time to ensure 20%-30% phosphorylation. The assays were stopped with a final concentration of 10 mM EDTA, 0.1% Coating Reagent and 100 mM HEPES, pH=7.4. The assay plates were placed on a Caliper Life Science Lab Chip 3000 (LC3000) instrument, and each well was sampled using appropriate separation conditions to measure the unphosphorylated and phosphorylated peptide.

The target of experiment [2] is Tyrosine-protein kinase JAK2 (Homo sapiens, UniProt O60674). As to the kind of experiment: JAK Caliper Enzyme Assay at 1 mM ATP: Test article was solubilized in dimethyl sulfoxide (DMSO) to a stock concentration of 30 mM. An 11-point half log dilution series was created in DMSO with a top concentration of 600 μM. […] The compound plates were diluted 1 to 60 resulting in a top final assay compound concentration of 10 μM and a 2% DMSO concentration.Test article and assay controls were added to a 384-well plate. Reaction mixtures contained 20 mM HEPES, pH 7.4, 10 mM magnesium chloride, 0.01% bovine serum albumin (BSA), 0.0005% Tween 20, 1 mM ATP and 1 μM peptide substrate. […] Enzyme concentrations and incubation times were optimized for each new enzyme preps and were modified slightly over time to ensure 20%-30% phosphorylation. The assays were stopped with a final concentration of 10 mM EDTA, 0.1% Coating Reagent and 100 mM HEPES, pH=7.4. The assay plates were placed on a Caliper Life Science Lab Chip 3000 (LC3000) instrument, and each well was sampled using appropriate separation conditions to measure the unphosphorylated and phosphorylated peptide.
Sequence of Tyrosine-protein kinase JAK2 (O60674 whole entry): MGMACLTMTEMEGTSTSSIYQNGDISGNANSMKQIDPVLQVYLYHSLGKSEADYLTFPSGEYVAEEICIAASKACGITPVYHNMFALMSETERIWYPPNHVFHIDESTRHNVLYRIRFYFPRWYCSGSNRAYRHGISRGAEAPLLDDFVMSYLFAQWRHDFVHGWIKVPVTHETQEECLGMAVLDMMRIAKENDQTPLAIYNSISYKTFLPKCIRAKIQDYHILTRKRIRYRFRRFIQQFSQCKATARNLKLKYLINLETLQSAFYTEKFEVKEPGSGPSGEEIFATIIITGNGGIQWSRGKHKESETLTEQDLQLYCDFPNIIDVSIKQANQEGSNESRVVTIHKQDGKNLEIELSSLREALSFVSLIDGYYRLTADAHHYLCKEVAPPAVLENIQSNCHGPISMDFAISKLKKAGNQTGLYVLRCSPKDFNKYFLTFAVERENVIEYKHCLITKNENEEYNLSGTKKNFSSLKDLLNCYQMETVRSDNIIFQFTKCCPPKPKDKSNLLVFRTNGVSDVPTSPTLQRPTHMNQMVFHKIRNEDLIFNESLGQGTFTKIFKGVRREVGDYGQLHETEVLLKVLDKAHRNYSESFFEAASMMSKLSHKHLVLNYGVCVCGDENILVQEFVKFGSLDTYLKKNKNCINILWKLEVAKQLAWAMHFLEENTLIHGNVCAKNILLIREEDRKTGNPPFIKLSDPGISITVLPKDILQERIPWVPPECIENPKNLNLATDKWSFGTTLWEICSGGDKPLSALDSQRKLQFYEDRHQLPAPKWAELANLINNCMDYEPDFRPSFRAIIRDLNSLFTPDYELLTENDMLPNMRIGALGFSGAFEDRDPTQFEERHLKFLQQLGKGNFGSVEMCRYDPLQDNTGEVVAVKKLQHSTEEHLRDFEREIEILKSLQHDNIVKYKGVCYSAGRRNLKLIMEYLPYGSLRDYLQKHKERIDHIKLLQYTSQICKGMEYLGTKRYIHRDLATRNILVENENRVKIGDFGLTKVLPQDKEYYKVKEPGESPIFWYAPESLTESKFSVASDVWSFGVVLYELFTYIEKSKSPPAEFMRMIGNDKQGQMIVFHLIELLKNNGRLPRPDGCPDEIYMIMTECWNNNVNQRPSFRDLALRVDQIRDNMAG

The target of experiment [3] is T1, Tyrosine-protein kinase JAK3 (Homo sapiens, UniProt P52333).
T1 sequence (P52333 whole entry): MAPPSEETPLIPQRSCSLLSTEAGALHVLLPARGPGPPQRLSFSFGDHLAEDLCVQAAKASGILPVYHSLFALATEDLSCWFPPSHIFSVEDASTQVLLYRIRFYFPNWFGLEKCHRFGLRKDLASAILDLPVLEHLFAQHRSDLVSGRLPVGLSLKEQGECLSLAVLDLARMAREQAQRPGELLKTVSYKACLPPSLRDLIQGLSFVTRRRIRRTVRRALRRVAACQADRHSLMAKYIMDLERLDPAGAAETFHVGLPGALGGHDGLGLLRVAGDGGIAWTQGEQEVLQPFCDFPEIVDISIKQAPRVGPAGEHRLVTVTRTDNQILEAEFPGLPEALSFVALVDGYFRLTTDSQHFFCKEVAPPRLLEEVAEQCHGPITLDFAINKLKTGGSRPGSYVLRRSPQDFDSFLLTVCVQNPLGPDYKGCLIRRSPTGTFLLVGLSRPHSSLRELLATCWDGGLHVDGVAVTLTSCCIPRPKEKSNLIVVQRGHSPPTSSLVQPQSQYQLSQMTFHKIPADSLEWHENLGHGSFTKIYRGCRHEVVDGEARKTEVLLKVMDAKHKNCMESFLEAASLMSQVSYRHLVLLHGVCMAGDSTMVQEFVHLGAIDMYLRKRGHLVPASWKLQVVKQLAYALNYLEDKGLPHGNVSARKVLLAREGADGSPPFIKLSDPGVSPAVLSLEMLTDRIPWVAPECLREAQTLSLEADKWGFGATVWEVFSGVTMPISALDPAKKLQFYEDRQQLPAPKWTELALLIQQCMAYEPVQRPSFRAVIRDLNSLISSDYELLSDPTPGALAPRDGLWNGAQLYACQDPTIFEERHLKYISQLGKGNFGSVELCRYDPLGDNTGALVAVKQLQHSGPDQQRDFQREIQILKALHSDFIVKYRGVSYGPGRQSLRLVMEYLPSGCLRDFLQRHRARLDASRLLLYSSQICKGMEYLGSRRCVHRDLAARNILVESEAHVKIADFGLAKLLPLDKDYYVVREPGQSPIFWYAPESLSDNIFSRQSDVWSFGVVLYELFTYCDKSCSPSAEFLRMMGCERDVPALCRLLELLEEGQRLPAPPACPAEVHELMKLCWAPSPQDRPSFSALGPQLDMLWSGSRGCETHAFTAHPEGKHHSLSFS
Described as §1.

In experiment [4] the target is Non-receptor tyrosine-protein kinase TYK2 (Homo sapiens, UniProt P29597). The description is as §1.
Sequence of Non-receptor tyrosine-protein kinase TYK2 (P29597 whole entry): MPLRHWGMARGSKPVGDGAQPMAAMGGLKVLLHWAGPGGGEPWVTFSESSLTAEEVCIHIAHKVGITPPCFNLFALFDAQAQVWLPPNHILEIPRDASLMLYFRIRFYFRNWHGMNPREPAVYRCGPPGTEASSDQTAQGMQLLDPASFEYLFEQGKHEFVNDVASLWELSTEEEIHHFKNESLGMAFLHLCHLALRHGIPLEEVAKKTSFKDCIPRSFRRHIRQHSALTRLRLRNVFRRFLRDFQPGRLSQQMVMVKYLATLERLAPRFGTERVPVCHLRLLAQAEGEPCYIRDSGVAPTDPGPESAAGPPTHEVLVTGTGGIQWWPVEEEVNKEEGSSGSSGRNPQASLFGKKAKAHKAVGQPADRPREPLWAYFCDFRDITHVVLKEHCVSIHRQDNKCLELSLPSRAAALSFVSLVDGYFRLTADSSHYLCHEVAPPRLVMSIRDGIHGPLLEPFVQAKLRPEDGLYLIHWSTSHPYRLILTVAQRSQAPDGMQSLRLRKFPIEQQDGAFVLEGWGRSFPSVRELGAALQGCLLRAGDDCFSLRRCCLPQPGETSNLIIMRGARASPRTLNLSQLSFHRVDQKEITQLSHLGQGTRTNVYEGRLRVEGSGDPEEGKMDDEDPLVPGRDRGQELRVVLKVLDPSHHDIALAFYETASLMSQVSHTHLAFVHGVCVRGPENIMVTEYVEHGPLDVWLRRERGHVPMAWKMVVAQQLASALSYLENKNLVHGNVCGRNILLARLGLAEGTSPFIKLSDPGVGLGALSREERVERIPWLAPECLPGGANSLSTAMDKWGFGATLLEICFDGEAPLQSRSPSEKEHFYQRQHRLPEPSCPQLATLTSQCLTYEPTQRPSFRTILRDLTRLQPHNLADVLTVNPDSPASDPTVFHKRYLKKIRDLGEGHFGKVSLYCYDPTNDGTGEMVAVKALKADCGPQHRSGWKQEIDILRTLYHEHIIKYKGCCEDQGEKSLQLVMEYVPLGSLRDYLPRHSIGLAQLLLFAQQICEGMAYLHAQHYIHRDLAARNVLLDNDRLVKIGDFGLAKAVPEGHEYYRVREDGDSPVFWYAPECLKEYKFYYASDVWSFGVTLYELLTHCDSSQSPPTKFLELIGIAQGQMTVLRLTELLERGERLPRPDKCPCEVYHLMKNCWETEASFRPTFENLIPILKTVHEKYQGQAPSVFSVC

Structures are written as SMILES.

Sequence of Tyrosine-protein kinase JAK1 (P23458 whole entry): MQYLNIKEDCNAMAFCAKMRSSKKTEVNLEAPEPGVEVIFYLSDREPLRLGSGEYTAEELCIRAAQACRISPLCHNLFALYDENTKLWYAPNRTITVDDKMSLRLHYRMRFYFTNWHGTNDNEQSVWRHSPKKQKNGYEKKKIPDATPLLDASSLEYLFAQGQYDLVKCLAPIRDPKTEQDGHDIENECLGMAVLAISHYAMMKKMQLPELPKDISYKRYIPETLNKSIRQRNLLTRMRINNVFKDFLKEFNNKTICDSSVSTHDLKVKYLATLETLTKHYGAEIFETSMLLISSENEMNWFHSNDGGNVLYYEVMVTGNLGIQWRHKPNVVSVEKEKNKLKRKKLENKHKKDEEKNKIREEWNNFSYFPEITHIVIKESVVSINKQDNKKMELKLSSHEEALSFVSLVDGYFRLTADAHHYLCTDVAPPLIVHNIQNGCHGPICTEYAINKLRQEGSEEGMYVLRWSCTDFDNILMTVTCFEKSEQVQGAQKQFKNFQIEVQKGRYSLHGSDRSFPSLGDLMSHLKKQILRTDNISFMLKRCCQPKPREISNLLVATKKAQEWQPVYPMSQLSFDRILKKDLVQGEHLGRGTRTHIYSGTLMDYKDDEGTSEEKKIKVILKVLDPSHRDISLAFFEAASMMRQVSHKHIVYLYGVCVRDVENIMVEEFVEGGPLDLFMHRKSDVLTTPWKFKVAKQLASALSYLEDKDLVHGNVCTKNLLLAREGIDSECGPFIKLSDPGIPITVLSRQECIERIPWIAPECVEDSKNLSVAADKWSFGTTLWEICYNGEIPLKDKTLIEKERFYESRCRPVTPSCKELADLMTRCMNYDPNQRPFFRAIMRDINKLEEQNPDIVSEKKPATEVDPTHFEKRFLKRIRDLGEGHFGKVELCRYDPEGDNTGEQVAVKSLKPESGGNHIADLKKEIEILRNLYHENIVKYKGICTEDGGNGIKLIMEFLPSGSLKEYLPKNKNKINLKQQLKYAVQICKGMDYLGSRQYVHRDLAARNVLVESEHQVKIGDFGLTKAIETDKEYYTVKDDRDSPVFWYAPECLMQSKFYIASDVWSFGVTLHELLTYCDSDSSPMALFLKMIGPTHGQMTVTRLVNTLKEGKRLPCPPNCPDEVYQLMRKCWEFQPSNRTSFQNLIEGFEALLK

Take `CC(=O)N1CCc2[nH]c(-c3n[nH]c4nc(-c5cc(F)c(O)cc5CC(F)(F)F)nc(NCc5cc(O)ccc5N(C)S(C)(=O)=O)c34)nc2C1`: the IC50 – broadly, the point on the concentration scale where inhibition reaches its midpoint – in experiment [1] turned out to be 0.0032 µM.

Take `CCc1cc(O)ccc1-c1cc2[nH]ncc2c(N2CCc3cc(OCCOC)ccc3C2)n1`: the IC50 in experiment [2] amounted to 0.0259 µM; in experiment [3], 0.0562 µM; in experiment [4] it was 0.289 µM; in experiment [1] it was 0.0101 µM.

For `CCc1cc(O)ccc1-c1cc2[nH]ncc2c(N2CCc3cc(-n4cnc(C)c4)ccc3C2)n1`, the IC50 stood at 0.0263 µM in experiment [2], 0.0424 µM in experiment [3], 0.723 µM in experiment [4] and 0.0107 µM in experiment [1].

With `CCc1cc(O)c(F)cc1-c1cc2[nH]ncc2c(NCc2ccccc2N(C)S(=O)(=O)CC)n1`, the values for the concentration for half-maximal inhibition (IC50) in experiment [3], in experiment [4] and in experiment [1] were 0.0173 µM, 0.0084 µM and 0.0007 µM, respectively.

Consider `CCc1cc(O)ccc1-c1cc2[nH]ncc2c(N2CCc3cccc(OC)c3C2)n1`, for which the IC50 in experiment [2] was determined as 0.0251 µM; in experiment [3] it was 0.0781 µM; in experiment [4] it was 0.478 µM.

Regarding `CCc1cc(O)ccc1-c1cc2[nH]ncc2c(N2CCc3c(Cl)cccc3C2)n1`, the IC50 in experiment [2] was 0.0465 µM; in experiment [3], 0.111 µM; in experiment [4], 0.561 µM; in experiment [1] it was 0.0394 µM.

For the compound `CN(c1ccc(O)cc1CNc1nc(-c2cc(F)c(O)cc2CC(F)(F)F)nc2[nH]nc(C(N)=O)c12)S(=O)(=O)c1ccccc1`, the IC50 in experiment [2] amounted to 0.123 µM.

For `CCc1cc(O)ccc1-c1cc2[nH]ncc2c(N2CCc3cc(OC)c(OCc4ccccc4)cc3C2)n1`, the values for the IC50 in experiment [3], in experiment [4] and in experiment [1] were 0.34 µM, 2.73 µM and 0.0674 µM, respectively.

For `CSCCNc1nc(-c2cc(F)c(O)cc2CC(F)(F)F)cc2[nH]nc(-c3nc4c([nH]3)CCN(Cc3ccccc3)C4)c12`, the IC50 is 0.196 µM in experiment [2], 0.589 µM in experiment [3], 0.172 µM in experiment [4] and 0.05 µM in experiment [1].

As for `CCc1cc(O)ccc1-c1cc2[nH]ncc2c(N2CCc3cc(F)ccc3C2)n1`, the IC50 in experiment [2] was determined as 0.0169 µM; in experiment [3] it was 0.0408 µM; in experiment [4], 0.302 µM; in experiment [1], 0.0097 µM.

In the case of `CCCCN(c1ccccc1CN(C)c1nc(-c2cc(F)c(O)cc2CC)cc2[nH]ncc12)S(C)(=O)=O`, the IC50 in experiment [2] is 0.0432 µM; in experiment [3] it was 0.0616 µM; in experiment [1], 0.0195 µM.

As for `CCc1cc(O)ccc1-c1cc2[nH]ncc2c(N2CCc3ccc(OC)c(OC)c3C2)n1`, the IC50 in experiment [2] was determined as 0.0524 µM; in experiment [3], 0.194 µM; in experiment [4], 1.54 µM; in experiment [1], 0.0138 µM.

Take `CN(c1ccc(F)cc1CNc1nc(-c2cc(F)c(O)cc2CC(F)(F)F)cc2[nH]nc(C(N)=O)c12)S(C)(=O)=O`: the IC50 in experiment [2] worked out at 0.0411 µM; in experiment [3], 0.14 µM; in experiment [4] it was 0.127 µM; in experiment [1], 0.0066 µM.
